11 molecules from PubChem BioAssay (NCI) can be followed below.

Holding throughout (assay): NCI-60 cell line screen, 48 h
The test system of assay [1] is RPMI-8226 leukemia.
In assay [2] the test system is SK-OV-3 ovarian.
For assay [3], the system named is SNB-78 CNS.
The subject of assay [4] is M19-MEL melanoma.
For assay [5], the system named is K-562 leukemia.
Assay [6] deals with HT29 colon.
Assay [7] has as its system DMS 273 small cell lung.
The test system of assay [8] is KM20L2 colon.
Assay [9] relates to LXFL 529 NSCLC.
Assay [10] deals with RXF 393 renal.
The subject of assay [11] is DLD-1 colon.
For assay [12], the system named is NCI-H226 lung.
Assay [13] deals with OVCAR-5 ovarian.

Molecules are shown by their SMILES.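 The compound was tested at five concentrations on cells cultured in 96-well plates, with a 48-hour exposure period. TGI: total growth inhibition.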 Bounds are passed on as bounds.

Consider `CCCCCCCC(=O)OCC1OC(n2cc(F)c(=O)[nH]c2=O)C(NC(=O)OCc2ccccc2)C(OC(=O)CCCCCCC)C1O` (stereo not drawn), for which the TGI was 51.2 µM in assay [1]; above 100 µM in assay [2]; above 100 µM in assay [3]; 54.6 µM in assay [4]; 61.8 µM in [5]; above 100 µM in [6]. The TGI was 54.7 µM in [7], above 100 µM in assay [8], above 100 µM in assay [9] and 64.2 µM in assay [10].
Take `CCOC(=O)/C(C#N)=C\C=C1/C=CNC2=NCCN21`: the TGI in [11], in [1], in assay [2], in assay [3], in assay [4] and in [5] was above 100 µM throughout. Further, the TGI in assay [6], in [7], in assay [8], in assay [12], in [9] and in assay [10] was above 100 µM each time.
As for `CCC(O)(c1ccc(OC)cc1)C(c1ccc(OCc2ccccc2)cc1)c1ccc(OCc2ccccc2)cc1` (stereo not drawn), the TGI in assay [11], in assay [1], in [2], in assay [3], in assay [4] and in [5] was above 100 µM each time. The TGI in assay [6], in assay [7], in assay [8], in assay [13], in assay [12] and in assay [9] was above 100 µM throughout. In assay [10], this molecule registered a TGI above 100 µM.
Regarding `O=C1NC(=O)C(=O)C(c2nc3ccccc3s2)C1=O`, the TGI in assay [11], in assay [2], in assay [3], in assay [4], in [6] and in assay [7] was above 100 µM in each case. The TGI in assay [8], in assay [12], in [9] and in assay [10] was above 100 µM throughout.
Turning to `O=C(c1cc2c(C(F)(F)F)onc2c2ccccc12)C(F)(F)F`, the TGI in assay [11] was above 100 µM; in assay [1], 12.8 µM; in assay [2] it was 46.7 µM; in assay [3], 3.82 µM; in [4], 23.4 µM; in assay [5], above 40 µM. In addition, the TGI was above 61.7 µM in assay [6]; 16.1 µM in assay [7]; 25.1 µM in assay [8]; above 100 µM in [13]; 13.5 µM in assay [12]; above 47 µM in assay [9]. The same molecule returned a TGI in [10] of 17.4 µM.
As to `Cc1ccc(NC(=O)CC/C(CC(=O)c2ccc(Cl)cc2)=N\NC(=O)C(=O)NN)cc1C`, the TGI in assay [11], in assay [1], in assay [2], in [3], in assay [4] and in assay [5] was above 100 µM throughout. For the same molecule, the TGI in assay [6], in assay [7], in assay [8], in [13], in [12] and in assay [9] was above 100 µM each time. Further, in assay [10], the TGI is above 100 µM.
`N#CC(C(=O)CCC(=O)Nc1ccc(Cl)cc1)c1ccccc1Cl` (stereo not drawn): the TGI in assay [11], in [1], in assay [2], in assay [3], in [4] and in assay [5] was above 100 µM throughout. Besides, the TGI in assay [7], in assay [8], in [13], in assay [12] and in assay [9] was above 100 µM each time.
With `CC(C)c1cccc(C(C)C)c1N=C(N)C#N`, the TGI in assay [11] was above 65.6 µM; in assay [1], above 87.3 µM; in assay [2], above 100 µM; in assay [3], above 100 µM; in assay [4], above 100 µM; in [5] it was above 61.7 µM. Moreover, the TGI in assay [6] is above 100 µM; in [7], above 56.9 µM; in assay [8], above 100 µM; in [13], above 100 µM; in assay [12], above 100 µM; in assay [9], above 100 µM. This molecule returned a TGI in assay [10] above 100 µM.
Turning to `C[Si](C)(C)/C=C\CCCN1C(=O)CCC1=O`, the TGI in assay [1], in assay [2], in [3], in assay [4], in [5] and in assay [6] was above 100 µM each time. Also, the TGI in assay [8], in assay [13] and in assay [9] was above 100 µM each time.
Consider `NNC(=O)CCC(=O)Nc1ccc(Cl)cc1Cl`, for which the TGI in [11], in [1], in [2], in [3], in assay [4] and in assay [5] was above 100 µM each time. The TGI in assay [6], in [7], in [8], in assay [13], in [12] and in assay [9] was above 100 µM throughout. Also, the TGI in [10] is above 100 µM.
In the case of `O=C(O)CN(c1ccccc1)S(=O)(=O)c1ccc(Cl)cc1`, the TGI in assay [11], in assay [1], in [2], in assay [4], in assay [5] and in assay [6] was above 100 µM in each case. Further, the TGI in assay [7], in [8], in assay [13], in assay [9] and in [10] was above 100 µM throughout.
